From patent US7781175B2, “Method of screening compounds which alter the binding properties of GPR39, and homologs thereof, to bile acid” (Takeda Pharmaceutical Company Limited, priority 2004, dated 2010)

Tests used:
Assay type in all cases: cell-based
[1] = molecular target: T1, GPR39 (SEQ ID NO: 1) (Homo sapiens, UniProt O43194); test: SRE-luciferase reporter assay for ligand activity in GPR39-expressed HeLa cells; conditions: for Increased Luciferase Activity (cps) by TLCA in GPR39-Expressed Cells: GPR39-expressed HeLa cells, 4 hours, 0 μM baseline 3574
T1 construct: expressed in transfected cells; host or cells: HeLa cells, transient transfection (vector pAKKO-111H)
T1 sequence (O43194 1-453): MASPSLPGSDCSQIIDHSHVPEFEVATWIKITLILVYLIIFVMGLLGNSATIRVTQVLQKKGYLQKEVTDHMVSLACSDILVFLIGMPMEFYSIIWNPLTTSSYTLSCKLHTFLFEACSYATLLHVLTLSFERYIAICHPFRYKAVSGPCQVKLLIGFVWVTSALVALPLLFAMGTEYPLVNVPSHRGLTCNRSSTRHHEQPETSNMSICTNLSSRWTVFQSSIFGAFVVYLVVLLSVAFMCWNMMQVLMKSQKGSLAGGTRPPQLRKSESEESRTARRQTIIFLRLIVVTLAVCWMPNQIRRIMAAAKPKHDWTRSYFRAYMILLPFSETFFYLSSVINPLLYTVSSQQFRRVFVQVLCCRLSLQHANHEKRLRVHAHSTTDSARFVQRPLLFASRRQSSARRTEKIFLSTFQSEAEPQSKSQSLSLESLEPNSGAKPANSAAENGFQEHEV
Method: (§1) First, cDNA encoding G protein-coupled receptor protein, the GPR39 (SEQ ID NO: 1) prepared by the method publicly known was inserted into pAKKO-111H (the same plasmid vector as pAKKO-1.111H described in Biochem. Biophys. Acta, Hinuma, S. et al., 1219, 251-259, 1994). Using the expression plasmid for animal cells thus obtained, Escherichia coli JM109 was transfected and the colonies obtained were isolated and cultured. Thereafter, large scale plasmid preparation was carried out using QIAGEN Plasmid Maxi Kit (Qiagen). Furthermore, the pSRE-Luc reporter plasmid (Invitrogen) ligated with a luciferase gene as a reporter at the downstream of serum response element (SRE), and expression vector plasmids for human GαoA, human Gβ1 and human Gγ2, which are a kind of G proteins, were prepared in a similar manner.
(§2) HeLa cells as host cells for transfecting the G protein-coupled receptor protein expression plasmid and the reporter plasmid were plated on a 384-well assay plate (COSTAR 3704) at 4000 cells/well in a culture volume of 25 μl, followed by incubation overnight. The medium used was DMEM (Invitrogen) supplemented with 10% fetal calf serum and 1% MEM non-essential amino acids solution (DMEM/NEAA).
(§3) Each plasmid was added to and mixed with 240 μl of Opti-MEM-I (Invitrogen) in a proportion of 1 μl of the protein expression plasmid or, for comparison, expression vector pAKKO-111H without DNA encoding the receptor protein in place of an expression plasmid of the receptor, 9 μl of the reporter plasmid and 1 μl each of the G protein-coupled receptor protein expression plasmid GαoA, Gβ1 or Gγ2. […]
(§4) The HeLa cells prepared in EXAMPLE 1 were washed twice with fetal calf serum-free DMEM/NEAA (assay medium) and then cultured in the same assay medium at 37° C. under 5% CO2 for 2 hours. […] After the cells were lysed and thoroughly mixed with the substrate, the chemiluminescence level corresponding to the expression induction level of the reporter gene in each well was measured on the plate reader (EnVision™, Perkin-Elmer).

[2] = tested on: pAKKO-111H transfected cells (control); test: SRE-luciferase reporter assay in pAKKO-111H transfected HeLa cells for control; conditions: for Luciferase Activity (cps), pAKKO-111H (control): pAKKO-111H transfected HeLa cells, 4 hours, 0 μM baseline 2042
Method: as §1, §2, §3, §4

[3] = tested on: GPR39-expressed cell line UM-UC-3; test: IL-8 secretion from GPR39-expressed cell line UM-UC-3, quantified by EIA; conditions: 500 μM, 4 hours
Method: Using the GPR39-expressed cell line UM-UC-3 (Dainippon Pharmaceutical), effects by the addition of bile acids as the GPR39 agonist were examined.
On the day before assay, UM-UC-3 was cultured until preconfluent in MINIMUM ESSENTIAL MEDIUM (WITH EARLE'S SALTS, WITH L-GLUTAMINE) (GIBCO BRL) supplemented with 10% FCS and MEM NON-ESSENTIAL AMINO ACIDS (GIBCO BRL), washed with PBS, detached using trypsin, centrifuged for recovery and then suspended in a medium to 3×10^6 cells/ml. After a 100 μl aliquot was dispensed into each well of a 96-well plate (Falcon), followed by incubation overnight in a CO2 incubator.
On the assay day, after the medium for the cells prepared on the preceding day was removed, the cells were washed with MEM NON-ESSENTIAL AMINO ACIDS-containing MINIMUM ESSENTIAL MEDIUM (WITH EARLE'S SALTS, WITH L-GLUTAMINE). A […] was further charged in each well, followed by incubation […] at 37° C. in a CO2 incubator. Subsequently, a 100 μl aliquot of MEM NON-ESSENTIAL AMINO ACIDS-containing MINIMUM ESSENTIAL MEDIUM (WITH EARLE'S SALTS, WITH L-GLUTAMINE), to which various test samples were added, was dispensed into each well, followed by incubation […]. After the culture supernatant was recovered, IL-8 contained in each sample was quantified by EIA (Amersham).

SMILES	luciferase activity in the GPR39-expressed cells (in words) ([1]; TLCA 5 μM or 20 μM)	Increased Luciferase Activity (cps) by TLCA in GPR39-Expressed Cells ([1]; TLCA level 5 μM) [cps]	Increased Luciferase Activity (cps) by TLCA in GPR39-Expressed Cells ([1]; TLCA level 20 μM) [cps]	luciferase activity in the pAKKO-111H transfected cells for control (in words) ([2]; TLCA added)	Luciferase Activity (cps), pAKKO-111H (control) ([2]; TLCA level 5 μM) [cps]	Luciferase Activity (cps), pAKKO-111H (control) ([2]; TLCA level 20 μM) [cps]	IL-8 accumulated in culture supernatant compared to absence of the conjugate [3]
C[C@H](CCC(=O)NCCS(=O)(=O)[O-])[C@H]1CC[C@H]2[C@@H]3CC[C@@H]4C[C@H](O)CC[C@]4(C)[C@H]3CC[C@]12C.[Na+] [TLCA, sodium taurolithocholate]	increased luciferase activity	5977	8114	any marked increase of the activity was not detected	2214	2542	
C[C@H](CCC(=O)NCCS(=O)(=O)O)[C@H]1CC[C@H]2[C@@H]3CC[C@@H]4C[C@H](O)CC[C@]4(C)[C@H]3C[C@H](O)[C@]12C [taurine conjugate of deoxycholic acid]							approximately twice as much
